Assay [1] has as its target T1, human glucocorticoid receptor-α [GRX] isoform (Homo sapiens, UniProt P04150).
T1 construct: host or cells: insect SF21 cells (baculovirus)
T1 sequence (P04150 1-777): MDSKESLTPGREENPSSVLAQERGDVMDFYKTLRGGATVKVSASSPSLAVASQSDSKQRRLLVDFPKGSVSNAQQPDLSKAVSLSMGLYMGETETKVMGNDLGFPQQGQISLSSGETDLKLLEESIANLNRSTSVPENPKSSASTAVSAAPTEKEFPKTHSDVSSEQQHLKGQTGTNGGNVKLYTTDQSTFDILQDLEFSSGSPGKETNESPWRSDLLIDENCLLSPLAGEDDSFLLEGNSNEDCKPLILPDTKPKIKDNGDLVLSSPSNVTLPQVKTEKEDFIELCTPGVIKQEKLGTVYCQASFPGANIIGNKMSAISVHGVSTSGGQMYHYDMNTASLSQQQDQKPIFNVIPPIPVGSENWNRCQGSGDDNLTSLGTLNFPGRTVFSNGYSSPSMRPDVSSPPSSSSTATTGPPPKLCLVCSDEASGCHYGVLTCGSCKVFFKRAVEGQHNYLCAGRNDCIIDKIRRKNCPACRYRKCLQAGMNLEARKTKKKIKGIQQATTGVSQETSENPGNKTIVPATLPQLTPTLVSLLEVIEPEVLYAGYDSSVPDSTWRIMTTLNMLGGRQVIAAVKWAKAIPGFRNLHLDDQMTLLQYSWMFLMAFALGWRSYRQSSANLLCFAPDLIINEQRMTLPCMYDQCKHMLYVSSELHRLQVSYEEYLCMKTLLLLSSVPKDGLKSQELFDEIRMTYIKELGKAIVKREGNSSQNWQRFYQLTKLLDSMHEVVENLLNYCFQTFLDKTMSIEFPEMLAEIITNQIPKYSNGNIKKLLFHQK
Nature of the assay: Radioligand binding with human glucocorticoid receptor cytosol ([3H]-dexamethasone competition). The note with it: GRX cytosol expressed in insect SF21 cells, [3H]-Dex ~0.9 nM, 4° C. overnight; Ki by Cheng-Prusoff, KL ~[…]; read-out: Ki (nM) GR.

For assay [2], the target named is T2, human progesterone receptor-A [PRA] isoform (Homo sapiens, UniProt P06401).
T2 construct: host or cells: insect SF21 cells (baculovirus)
T2 sequence (P06401 1-769 isoform P06401-2): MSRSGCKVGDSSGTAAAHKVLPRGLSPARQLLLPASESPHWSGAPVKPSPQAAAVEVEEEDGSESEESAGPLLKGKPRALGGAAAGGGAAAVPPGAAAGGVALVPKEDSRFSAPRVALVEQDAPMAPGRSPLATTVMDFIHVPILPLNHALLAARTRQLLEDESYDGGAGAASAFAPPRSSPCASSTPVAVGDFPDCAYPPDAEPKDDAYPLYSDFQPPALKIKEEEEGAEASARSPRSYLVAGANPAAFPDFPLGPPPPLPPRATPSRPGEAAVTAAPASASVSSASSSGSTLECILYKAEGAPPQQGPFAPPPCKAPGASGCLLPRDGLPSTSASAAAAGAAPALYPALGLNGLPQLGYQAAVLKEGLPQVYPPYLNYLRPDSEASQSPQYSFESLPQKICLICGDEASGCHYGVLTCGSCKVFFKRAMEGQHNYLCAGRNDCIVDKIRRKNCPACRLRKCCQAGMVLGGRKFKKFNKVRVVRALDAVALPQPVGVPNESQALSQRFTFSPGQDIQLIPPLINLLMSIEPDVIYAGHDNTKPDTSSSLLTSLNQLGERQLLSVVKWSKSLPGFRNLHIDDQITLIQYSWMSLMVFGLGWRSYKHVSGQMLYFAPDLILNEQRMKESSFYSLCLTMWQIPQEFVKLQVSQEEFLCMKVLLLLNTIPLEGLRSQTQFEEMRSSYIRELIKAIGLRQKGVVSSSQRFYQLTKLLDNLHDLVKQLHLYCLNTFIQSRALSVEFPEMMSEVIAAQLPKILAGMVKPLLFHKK
Put plainly: Radioligand binding with human progesterone receptor cytosol ([3H]-progesterone competition). As to conditions: PRA cytosol expressed in insect SF21 cells, [3H]Prog ~0.8 nM, 4° C. overnight; Ki by Cheng-Prusoff, KL ~4.5 nM; read-out: Ki (nM) PR.

The term Ki denotes a dissociation constant, usually derived from enzyme kinetics or from competition with a known ligand. Consider `CCC1Oc2ccc(O)c(Cl)c2-c2ccc3c(c21)C(C)=CC(C)(C)N3` (centres unmarked) [Example 404, 2,5-Dihydro-9-hydroxy-10-chloro-2,2,4-trimethyl-5-ethyl-1H-[1]benzopyrano[3,4-f]quinoline], for which the inhibition constant (Ki) was found to be 1.3 nM in assay [1] and 49.7 nM in assay [2].
Taken in the same sequence, the figures for `COc1cccc2c1-c1ccc3c(c1C(=CC1=NC(C)(C)CO1)O2)C(C)=CC(C)(C)N3` [Example 127, 2,5-Dihydro-10-methoxy-2,2,4-trimethyl-5-[(4,5-dihydro-4,4-dimethyl-2-oxazolyl)methylene]-1H-[1]benzopyrano[3,4-f]quinoline] were 29.3 nM and at least 10000 nM.
Taken in the same sequence, the figures for `COc1cccc2c1-c1ccc3c(c1C(c1c[nH]c4ccccc14)O2)C(C)=CC(C)(C)N3` (centres unmarked) [Example 151, 2,5-Dihydro-10-methoxy-5-(3-indolyl)-2,2,4-trimethyl-1H-[1]benzopyrano[3,4-f]quinoline] were 298 nM and at least 10000 nM.
Taken in the same sequence, the figures for `C=CCCC1Oc2ccc(O)c(OC)c2-c2ccc3c(c21)C(C)=CC(C)(C)N3` (centres unmarked) [Example 261, 2,5-Dihydro-9-hydroxy-10-methoxy-2,2,4-trimethyl-5-(3-butenyl)-1H-[1]benzopyrano[3,4-f]quinoline] were 0.75 nM and 161 nM.
On to `C=CCC1Oc2cccc(SC)c2-c2ccc3c(c21)C(C)=CC(C)(C)N3` (centres unmarked) [Example 342, 2,5-Dihydro-5-(3-propenyl)-10-methylthio-2,2,4-trimethyl-1H-[1]benzopyrano[3,4-f]quinoline], for which the inhibition constant Ki is 2590 nM in assay [1] and at least 10000 nM in assay [2].
For `COc1cccc2c1-c1ccc3c(c1C(CC=O)O2)C(C)=CC(C)(C)N3` (centres unmarked) [Example 186, 2-(2,5-Dihydro-10-methoxy-2,2,4-trimethyl-1H-[1]benzopyrano[3,4-f]quinolin-5-yl)acetaldehyde], in that order: 90 nM and at least 10000 nM.
For `C=CCC1Oc2ccc(C(=O)OC)c(OC)c2-c2ccc3c(c21)C(C)=CC(C)(C)N3` (centres unmarked) [Example 388, 2,5-Dihydro-9-methylcarboxylate-10-methoxy-2,2,4-trimethyl-5-allyl-1H-[1]benzopyrano[3,4-f]quinoline], in that order: 2.8 nM and 199 nM.
For `COCOCCC1Oc2cccc(OC)c2-c2ccc3c(c21)C(C)=CC(C)(C)N3` (centres unmarked) [Example 205, 2,5-Dihydro-10-methoxy-5-(2-methoxymethoxyethyl)-2,2,4-trimethyl-1H-[1]benzopyrano[3,4-f]quinoline], in that order: 11.4 nM and at least 10000 nM.
On to `COc1cccc2c1-c1ccc3c(c1C(=Cc1c(F)cccc1F)O2)C(C)=CC(C)(C)N3` [Example 123], for which the inhibition constant Ki in assay [1] was 6.1 nM; in assay [2] it was 9570 nM.
`COc1c(OC(=O)CCC(=O)N(C)C)ccc2c1-c1ccc3c(c1[C@H]([C@@H]1C=CCC1)O2)C(C)=CC(C)(C)N3` [Example 441, (−)2,5-Dihydro-9-(4-N,N-dimethylamino-4-oxo-butanoyloxy)-10-methoxy-2,2,4-trimethyl-5(S)-(3(S)-1-cyclopenten-3-yl)-1H-[1]benzopyrano[3,4-f]quinoline]: the values for the inhibitory constant (Ki) in assay [1] and in assay [2] were 0.42 nM and 328 nM, respectively.
For `COc1cccc2c1-c1ccc3c(c1C(=Cc1ccccc1Cl)O2)C(C)=CC(C)(C)N3` [Example 124], in that order: 3.2 nM and 1610 nM.
Regarding `CC1=C[C@H]([C@H]2Oc3ccc(O)c(Cl)c3-c3ccc4c(c32)C(C)=CC(C)(C)N4)CCC1` [Example 420], the inhibition constant (Ki) was 125 nM in assay [1] and 2400 nM in assay [2].
Taken in the same sequence, the figures for `COc1c(O)ccc2c1-c1ccc3c(c1C(C1CCCCC1)O2)C(C)=CC(C)(C)N3` (centres unmarked) [Example 278, 2,5-Dihydro-9-hydroxy-10-methoxy-2,2,4-trimethyl-5-cyclohexyl-1H-[1]benzopyrano[3,4-f]quinoline] were 1.1 nM and 533 nM.
Taken in the same sequence, the figures for `COc1c(C)ccc2c1-c1ccc3c(c1C(C1C=C(C)CCC1)O2)C(C)=CC(C)(C)N3` (racemic) [Example 307, (+/−)2,5-Dihydro-9-methyl-10-methoxy-2,2,4-trimethyl-5-(1-methylcyclohexen-3-yl)-1H-[1]benzopyrano[3,4-f]quinoline] were 4.6 nM and 27.8 nM.
With `C=CCC1Oc2ccc(OC(=O)CCCC(=O)N3CCCCC3)c(OC)c2-c2ccc3c(c21)C(C)=CC(C)(C)N3` (centres unmarked) [Example 439], the figures for the inhibitory constant (Ki) in assay [1] and in assay [2] were 1.2 nM and 202 nM, respectively.
Take `COc1c(O)ccc2c1-c1ccc3c(c1/C(=C/c1cccc(F)c1F)O2)C(C)=CC(C)(C)N3` [Example 373, (Z)-9-Hydroxy-10-methoxy-5-([2,3-difluorophenyl]methylene)-2,2,4-trimethyl-1H-2,5-dihydro-[1]benzopyrano[3,4-f]quinoline]: the values for the Ki in assay [1] and in assay [2] were 3.1 nM and 279 nM, respectively.
For `C=CCC1Oc2ccc(Cl)c(OC(F)F)c2-c2ccc3c(c21)C(C)=CC(C)(C)N3` (centres unmarked) [Example 230, 5-(3-Propenyl)-9-chloro-10-difluoromethoxy-2,2,4-trimethyl-2,5-dihydro-1H-[1]benzopyrano[3,4-f]quinoline], in that order: 2.4 nM and 50.3 nM.
For `COc1cccc2c1-c1ccc3c(c1C(/C=C/CO)O2)C(C)=CC(C)(C)N3` (centres unmarked) [Example 181, (E) 2,5-Dihydro-10-methoxy-5-(3-hydroxy-1-propenyl)-2,2,4-trimethyl-1H-[1]benzopyrano[3,4-f]quinoline], in that order: 207 nM and at least 10000 nM.
Taken in the same sequence, the figures for `C=C1CC(C)(C)Nc2ccc3c(c21)C(c1ccccc1)Oc1cccc(OC(F)(F)Br)c1-3` (centres unmarked) [Example 347, 10-(Bromodifluoromethoxy)-5-phenyl-2,2-dimethyl-4-methylene-2,3,4,5-tetrahydro-1H-chromeno[3,4-f]quinoline] were 128 nM and at least 10000 nM.
Consider `C=Cc1cccc2c1-c1ccc3c(c1C(C1C=CCCC1)O2)C(C)=CC(C)(C)N3` (centres unmarked) [Example 340], for which the Ki worked out at 1.8 nM in assay [1] and 254 nM in assay [2].
Taken in the same sequence, the figures for `COc1cccc2c1-c1ccc3c(c1C(C1C=CCCC1(C)C)O2)C(C)=CC(C)(C)N3` (centres unmarked) [Example 140] were 13 nM and at least 10000 nM.
For `COc1c(OC(=O)CCC(=O)N(C)C)ccc2c1-c1ccc3c(c1C(Cc1ccccc1)O2)C(C)=CC(C)(C)N3` (centres unmarked) [Example 424, 2,5-Dihydro-9-(4-N,N-dimethylamino-4-oxo-butanoyloxy)-10-methoxy-5-(phenylmethyl)-2,2,4-trimethyl-1H-[1]benzopyrano[3,4-f]quinoline], in that order: 0.84 nM and 1950 nM.
For `COc1c(O)ccc2c1-c1ccc3c(c1C(c1ccc(Cl)c(C(F)(F)F)c1)O2)C(C)=CC(C)(C)N3` (centres unmarked) [Example 258, 2,5-Dihydro-9-hydroxy-10-methoxy-2,2,4-trimethyl-5-(3-trifluoromethyl-4-chlorophenyl)-1H-[1]benzopyrano[3,4-f]quinoline], in that order: 10.7 nM and 879 nM.
As for `COc1cccc2c1-c1ccc3c(c1C(=Cc1cccc(C(F)(F)F)c1)O2)C(C)=CC(C)(C)N3` [Example 122, 2,5-Dihydro-10-methoxy-2,2,4-trimethyl-5-[[3-(trifluoromethyl)phenyl]methylene-]1H-[1]-benzopyrano[3,4-f]quinoline], the Ki came to 11.8 nM in assay [1] and 1410 nM in assay [2].
Taken in the same sequence, the figures for `CSCOc1cccc(C2Oc3cccc(OC(F)F)c3-c3ccc4c(c32)C(C)=CC(C)(C)N4)c1` (centres unmarked) [Example 396] were 6.3 nM and 2120 nM.

The record behind these values is patent US6506766B1 (Abbott Laboratories, priority 1998, dated 2003).
